Consider 7 compounds from PubChem BioAssay (NCI).

Among the test systems are RPMI-8226 leukemia; NCI-H226 lung; EKVX NSCLC; SF-268 CNS; SK-MEL-28 melanoma; MOLT-4 leukemia; UO-31 renal; NCI-H460 lung; COLO 205 colon; CAKI-1 renal.
Assay in all cases: NCI anticancer screen, dose series, 48 h

Several values for one entry are separate records, joined by “and”; a condition that tells them apart may be missing. Equal entries are not always repeated.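 Growth conditions: 96-well plates. Treatment: test compound, 48 hours, 5 concentrations. Analysis: linear interpolation between bracketing concentrations; unreached endpoints set to highest concentration. At the GI50, growth is halved. Definition used: TGI = concentration required for complete inhibition of growth.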

Take `CCSc1nc(N)c2cn[nH]c2n1`: the GI50 is 21.3 µM with RPMI-8226 leukemia; 16.9 µM in the assay with NCI-H226 lung; 51.4 µM with EKVX NSCLC; 25.3 µM in the assay with SF-268 CNS; 33.2 µM in the assay with SK-MEL-28 melanoma; 39.4 µM in the assay on MOLT-4 leukemia. In addition, the GI50 in the assay on UO-31 renal was 49 µM; in the assay with NCI-H460 lung it was 35.1 µM; with COLO 205 colon it was 23.5 µM; in the assay with CAKI-1 renal, 22.3 µM. Further, the TGI is 49.1 µM with RPMI-8226 leukemia; 57.1 µM with NCI-H226 lung; over 100 µM in the assay with EKVX NSCLC; 74.1 µM in the assay with SF-268 CNS; over 100 µM with SK-MEL-28 melanoma; over 100 µM with MOLT-4 leukemia. Moreover, the TGI with UO-31 renal was over 100 µM; in the assay on NCI-H460 lung, over 100 µM; with COLO 205 colon, 53.9 µM; in the assay on CAKI-1 renal, 76 µM.
For the compound `CC1CCCc2c1nn(C(=O)/C=C(\N)c1ccccc1)c2N` (stereo not drawn), the GI50 is 9.13 µM with RPMI-8226 leukemia; 16.5 µM with NCI-H226 lung; 16.5 µM with EKVX NSCLC; 9.61 µM in the assay with SF-268 CNS; 17.9 µM with SK-MEL-28 melanoma; 5.16 µM in the assay with MOLT-4 leukemia. For the same compound, the GI50 with UO-31 renal was 3.92 µM; with NCI-H460 lung, 4.23 µM; in the assay on COLO 205 colon it was 10.1 µM; in the assay on CAKI-1 renal, 4.11 µM. Moreover, the TGI in the assay on RPMI-8226 leukemia was over 100 µM; with NCI-H226 lung, over 100 µM; in the assay with EKVX NSCLC, 44.1 µM; in the assay on SF-268 CNS, over 100 µM; with SK-MEL-28 melanoma it was over 100 µM; in the assay with MOLT-4 leukemia, 84.9 µM. Besides, the TGI is over 100 µM in the assay with UO-31 renal, over 100 µM in the assay with NCI-H460 lung, 79.1 µM in the assay on COLO 205 colon and 15.4 µM with CAKI-1 renal.
Consider `CC1(C)CC[C@H](C2=CC(=O)c3c(O)ccc(O)c3C2=O)O1`, for which the GI50 in the assay on RPMI-8226 leukemia is 1.42 µM and 0.278 µM and 0.398 µM; in the assay with NCI-H226 lung, 5.01 µM and 1.79 µM and 0.611 µM; with EKVX NSCLC, 4.7 µM and 1.48 µM and 1.35 µM; in the assay with SF-268 CNS, 3.54 µM and 2.19 µM and 1.01 µM; in the assay with SK-MEL-28 melanoma, 2.17 µM and 0.979 µM and 0.571 µM; with MOLT-4 leukemia it was 0.487 µM and 0.16 µM and 0.137 µM. Besides, the GI50 in the assay with UO-31 renal was 1.39 µM and 1.69 µM and 0.391 µM; in the assay on NCI-H460 lung, 5.14 µM and 1.61 µM and 1.45 µM; with COLO 205 colon, 0.632 µM and 0.144 µM and 0.139 µM; with CAKI-1 renal, 1.11 µM and 1.38 µM and 0.48 µM. Moreover, the TGI in the assay on RPMI-8226 leukemia is 5.13 µM and 0.992 µM and 2.2 µM; in the assay on EKVX NSCLC it was 11.8 µM and 3.03 µM and 3.95 µM; in the assay with SF-268 CNS, 10.3 µM and 6.27 µM and 6.67 µM; in the assay on SK-MEL-28 melanoma, 5.43 µM and 2.15 µM and 1.16 µM; in the assay on UO-31 renal it was 4 µM and 3.06 µM and 0.838 µM; with NCI-H460 lung it was 19.5 µM and 3.36 µM and 3.86 µM. The TGI in the assay with COLO 205 colon is 1.66 µM and 0.388 µM and 0.227 µM; with CAKI-1 renal, 2.44 µM and 2.72 µM and 1.17 µM.
In the case of `O=C1C(SCCO)=C(SCCO)C(=O)c2ccccc21`, the TGI in the assay with RPMI-8226 leukemia was determined as 3.09 µM; with NCI-H226 lung, 3.38 µM; in the assay on EKVX NSCLC, 3.08 µM; in the assay on SF-268 CNS it was 3.21 µM; with SK-MEL-28 melanoma, 3.18 µM; with MOLT-4 leukemia, 0.481 µM. The TGI came to 2.57 µM in the assay with UO-31 renal, 3.49 µM in the assay on NCI-H460 lung, 3.27 µM with COLO 205 colon and 4.24 µM in the assay with CAKI-1 renal.
Consider `O=C/C(=C(/Cl)c1ccc(O)cc1)c1ccccc1`, for which the TGI in the assay on RPMI-8226 leukemia is over 63 µM; with NCI-H226 lung it was over 100 µM; with EKVX NSCLC, over 75.7 µM; with SF-268 CNS, 77.8 µM; with SK-MEL-28 melanoma, 41.9 µM; in the assay with MOLT-4 leukemia it was over 69.4 µM. Moreover, the TGI in the assay on UO-31 renal was 61.8 µM; in the assay with NCI-H460 lung it was over 100 µM; in the assay on COLO 205 colon it was 46.9 µM; in the assay with CAKI-1 renal it was over 56.8 µM.
Turning to `COC1OC(C)C(OCc2ccccc2)C(OS(=O)(=O)c2ccc(C)cc2)C1OS(=O)(=O)c1ccc(C)cc1` (stereo not drawn), the TGI in the assay with RPMI-8226 leukemia, in the assay with NCI-H226 lung, in the assay on EKVX NSCLC, with SF-268 CNS, in the assay with SK-MEL-28 melanoma and in the assay on MOLT-4 leukemia was over 100 µM throughout. The TGI in the assay on UO-31 renal, with NCI-H460 lung, with COLO 205 colon and in the assay on CAKI-1 renal was over 100 µM each time.
As to `CNC(=O)c1cc2c(Oc3ccc(NC(=O)C4(C(=O)Nc5ccc(F)cc5)CC4)cc3)ccnc2cc1OC`, the GI50 was 2.6 µM in the assay with RPMI-8226 leukemia; 2.47 µM in the assay with NCI-H226 lung; 3.39 µM in the assay on EKVX NSCLC; 3.06 µM in the assay with SF-268 CNS; 3.68 µM in the assay on SK-MEL-28 melanoma; 2.23 µM in the assay with MOLT-4 leukemia. The GI50 is 1.78 µM in the assay on UO-31 renal, 3.88 µM in the assay with NCI-H460 lung, 2.23 µM with COLO 205 colon and 1.52 µM with CAKI-1 renal. The TGI with RPMI-8226 leukemia is 55.9 µM; with NCI-H226 lung it was 10.7 µM; in the assay with EKVX NSCLC it was over 100 µM; in the assay on SF-268 CNS, over 100 µM; with SK-MEL-28 melanoma, over 100 µM; with MOLT-4 leukemia it was 8.18 µM. In addition, the TGI in the assay with UO-31 renal is 6.25 µM; with NCI-H460 lung, over 100 µM; in the assay on COLO 205 colon, 9.13 µM; with CAKI-1 renal it was 3.33 µM.
